IC50 data for 45 compounds are collected here from ChEMBL document CHEMBL5050833, “Novel cyclic trex1 inhibitors” (2020).

The nature of experiment [1]: Inhibition of human TREX1 exonuclease activity using labeled DNA oligonucleotide as substrate incubated for 30 mins and measured after 45 mins by fluorescence assay.
The nature of experiment [2]: Inhibition of mouse TREX1 exonuclease activity using labeled DNA oligonucleotide as substrate incubated for 30 mins and measured after 45 mins by fluorescence assay.

For orientation: IC50 means the concentration that gives 50% inhibition. Read a low IC50 as greater potency. Regarding `CC(C)C[C@H](C(=O)NCc1ccc(F)cc1)N1CCC(CCc2ccccc2)N2C[C@H](N)C[C@H]2C1=O` (stereo not given in full), the IC50 in experiment [1] was less than 1 µM; in experiment [2], “in the range around 1 µM”.
Take `CC(C)C[C@H](CNC(=O)c1ccc(Cl)cc1)N1CCC(CCc2ccccc2)N2C[C@H](N)C[C@H]2C1=O` (stereo not given in full): the IC50 result in experiment [1] and in experiment [2] was “in the range around 1 µM” each time.
As to `N[C@@H]1C[C@H]2C(=O)N([C@H](CC(=O)O)C(=O)NCc3ccc(Cl)c(Cl)c3)CCC(CCc3ccccc3)N2C1` (stereo not given in full), the IC50 in experiment [1] and in experiment [2] was less than 1 µM throughout.
For the compound `N[C@@H]1C[C@H]2C(=O)N([C@H](CCC(=O)O)C(=O)NCc3ccc(C(F)(F)F)cc3)CCC(CCc3ccccc3)N2C1` (stereo in doubt; form 1), the 50% inhibitory concentration (IC50) entry in experiment [1] and in experiment [2] was “in the range around 10 µM” each time.
Take `CC(C)C[C@H](C(=O)N[C@H](C)c1ccccc1)N1CCC(CCc2ccccc2)N2C[C@H](N)C[C@H]2C1=O` (stereo not given in full): the IC50 entry in experiment [1] and in experiment [2] was “in the range around 10 µM” in each case.
For `CC(C)C[C@H](C(=O)NCc1ccc(Cl)cc1)N1CCC(C[S@@+]([O-])c2ccccc2)N2C[C@H](N)C[C@H]2C1=O` (stereo not given in full), the results for the IC50 in experiment [1] and in experiment [2] were less than 1 µM and “in the range around 1 µM”, respectively.
For the compound `N[C@@H]1C[C@H]2C(=O)N([C@H](CCC(=O)O)C(=O)NCc3ccc(C(F)(F)F)cc3)CCC(CCc3ccccc3)N2C1` (stereo in doubt; form 2), the IC50 in experiment [1] and in experiment [2] was less than 1 µM each time.
Turning to `CC(C)C[C@H](C(=O)NCc1cccc(Cl)c1)N1CCC(CCc2ccccc2)N2C[C@H](N)C[C@H]2C1=O` (stereo not given in full), the 50% inhibitory concentration (IC50) in experiment [1] was less than 1 µM; in experiment [2], “in the range around 1 µM”.
The matching figures for `CC(C)C[C@H](C(=O)NCc1ccc(Cl)cc1)N1CCC(CCc2ccccc2)N2C[C@H](N)C[C@H]2C1=O` (stereo not given in full): less than 1 µM and “in the range around 1 µM”.
`CC(C)C[C@H](C(=O)NCC1CCCCC1)N1CCC(CCc2ccccc2)N2C[C@H](N)C[C@H]2C1=O` (stereo not given in full): the concentration for half-maximal inhibition (IC50) result in experiment [1] and in experiment [2] was “in the range around 10 µM” throughout.
Turning to `CC(C)C[C@H](C(=O)NCc1ccc(Cl)c(Cl)c1)N1CCC(CSc2ccccc2)N2C[C@H](N)C[C@H]2C1=O` (stereo not given in full), the half-inhibitory concentration (IC50) in experiment [1] and in experiment [2] was less than 1 µM throughout.
On to `CC(C)C[C@H](C(=O)NCc1cc(Cl)cc(Cl)c1)N1CCC(CCc2ccccc2)N2C[C@H](N)C[C@H]2C1=O` (stereo not given in full), for which the IC50 in experiment [1] was less than 1 µM; in experiment [2] it was “in the range around 1 µM”.
The matching figures for `CC(C)C[C@H](C(=O)NS(=O)(=O)c1ccc(Cl)c(Cl)c1)N1CCC(CCc2ccccc2)N2C[C@H](N)C[C@H]2C1=O` (stereo not given in full): less than 1 µM and less than 1 µM.
Turning to `CC(C)C[C@H](C(=O)NCc1ccc(Cl)c(Cl)c1)N1CCC(CCc2ccccc2)N2C[C@H](N(C)C)C[C@H]2C1=O` (stereo not given in full), the IC50 result in experiment [1] is “in the range around 10 µM”; in experiment [2], more than 100 µM.
On to `N[C@@H]1C[C@H]2C(=O)N([C@H](CCc3nnn[nH]3)C(=O)NCc3ccc(Cl)c(Cl)c3)CCC(CCc3ccccc3)N2C1` (stereo not given in full), for which the concentration for half-maximal inhibition (IC50) in experiment [1] and in experiment [2] was less than 1 µM throughout.
In the case of `N[C@@H]1C[C@H]2C(=O)N([C@H](CCc3nsc(=O)[nH]3)C(=O)NCc3ccc(Cl)c(Cl)c3)CCC(CCc3ccccc3)N2C1` (stereo not given in full), the half-inhibitory concentration (IC50) in experiment [1] and in experiment [2] was less than 1 µM throughout.
For `CCC[C@H](C(=O)NS(=O)(=O)c1ccc(Cl)c(Cl)c1)N1CCC(CCc2ccccc2)N2C[C@H](N)C[C@H]2C1=O` (stereo not given in full), the figures for the half-inhibitory concentration (IC50) in experiment [1] and in experiment [2] were less than 1 µM and “in the range around 1 µM”, respectively.
With `CC(C)C[C@H](C(=O)NCc1ccc(C(F)(F)F)cc1)N1CCC(CCc2ccccc2)N2C[C@H](N)C[C@H]2C1=O` (stereo not given in full), the half-inhibitory concentration (IC50) in experiment [1] and in experiment [2] was less than 1 µM throughout.
Consider `C[C@H](C(=O)NCc1ccc(C(F)(F)F)cc1)N1CCC(CCc2ccccc2)N2C[C@H](N)C[C@H]2C1=O` (stereo not given in full), for which the IC50 in experiment [1] and in experiment [2] was less than 1 µM in each case.
For `N[C@@H]1C[C@H]2C(=O)N([C@H](CCC(=O)O)C(=O)NCc3ccc(Cl)c(Cl)c3)CCC(CCc3ccccc3)N2C1` (stereo in doubt; form 1), the IC50 entry in experiment [1] and in experiment [2] was “in the range around 10 µM” throughout.
In the case of `CC(=O)N[C@@H]1C[C@H]2C(=O)N([C@H](CC(C)C)C(=O)NCc3ccc(Cl)c(Cl)c3)CCC(CCc3ccccc3)N2C1` (stereo not given in full), the IC50 result in experiment [1] is “in the range around 1 µM”; in experiment [2], “in the range around 10 µM”.
With `CC(C)C[C@H](C(=O)NCc1ccc(Cl)c(Cl)c1)N1CCC(CCc2ccccc2)N(CCN)CC1=O` (stereo not given in full), the values for the IC50 result in experiment [1] and in experiment [2] were “in the range around 1 µM” and “in the range around 10 µM”, respectively.
In the case of `CC(C)C[C@H](C(=O)NCc1ccc(Cl)c(Cl)c1)N1CC(CCc2ccccc2)N2C[C@H](N)C[C@H]2C1=O` (stereo not given in full), the concentration for half-maximal inhibition (IC50) entry in experiment [1] and in experiment [2] was “in the range around 10 µM” throughout.
On to `CC(C)C[C@H](C(=O)NCc1ccc(Cl)c(Cl)c1)N1CCC(COc2ccccc2)N2C[C@H](N)C[C@H]2C1=O` (stereo not given in full), for which the IC50 in experiment [1] was less than 1 µM; in experiment [2] it was “in the range around 1 µM”.
Consider `CC(C)C[C@H](C(=O)NCCc1ccccc1)N1CCC(CCc2ccccc2)N2C[C@H](N)C[C@H]2C1=O` (stereo not given in full), for which the IC50 entry in experiment [1] is “in the range around 1 µM”; in experiment [2], “in the range around 10 µM”.
In the case of `CC(C)C[C@H](C(=O)NCc1ccc(Cl)cc1Cl)N1CCC(CCc2ccccc2)N2C[C@H](N)C[C@H]2C1=O` (stereo not given in full), the IC50 is less than 1 µM in experiment [1] and “in the range around 1 µM” in experiment [2].
In the case of `N[C@@H]1C[C@H]2C(=O)N([C@H](CCC(=O)O)C(=O)NCc3ccc(Cl)c(Cl)c3)CCC(CCc3ccccc3)N2C1` (stereo in doubt; form 2), the IC50 in experiment [1] and in experiment [2] was less than 1 µM each time.
As for `CC(C)C[C@H](C(=O)NCc1cscn1)N1CCC(CCc2ccccc2)N2C[C@H](N)C[C@H]2C1=O` (stereo not given in full), the concentration for half-maximal inhibition (IC50) entry in experiment [1] is “in the range around 1 µM”; in experiment [2], “in the range around 10 µM”.
Consider `CC(C)C[C@H](C(=O)NCCc1ccc(Cl)c(Cl)c1)N1CCC(CCc2ccccc2)N2C[C@H](N)C[C@H]2C1=O` (stereo not given in full), for which the 50% inhibitory concentration (IC50) in experiment [1] is less than 1 µM; in experiment [2], “in the range around 1 µM”.
Regarding `CC(C)C[C@H](C(=O)NCc1ccccc1)N1CCC(CCc2ccccc2)N2C[C@H](N)C[C@H]2C1=O` (stereo not given in full), the IC50 entry in experiment [1] is “in the range around 1 µM”; in experiment [2], “in the range around 10 µM”.
As for `CC(C)C[C@H](C(=O)NS(=O)(=O)c1ccccc1)N1CCC(CCc2ccccc2)N2C[C@H](N)C[C@H]2C1=O` (stereo not given in full), the 50% inhibitory concentration (IC50) entry in experiment [1] and in experiment [2] was “in the range around 1 µM” throughout.
`CC(C)C[C@H](C(=O)NCc1ccccc1Cl)N1CCC(CCc2ccccc2)N2C[C@H](N)C[C@H]2C1=O` (stereo not given in full): the IC50 result is “in the range around 1 µM” in experiment [1] and “in the range around 10 µM” in experiment [2].
The corresponding values for `CC(C)C[C@H](C(=O)NCc1ccc(Cl)c(Cl)c1)N1CCC(Cc2ccccc2)N2C[C@H](N)C[C@H]2C1=O` (stereo not given in full) are “in the range around 1 µM” and “in the range around 1 µM”.
The matching figures for `CC(C)C[C@H](C(=O)NCc1ccc(Cl)c(Cl)c1)N1CCC(C)N2C[C@H](N)C[C@H]2C1=O` (stereo not given in full): “in the range around 10 µM” and “in the range around 10 µM”.
Regarding `CC(C)C[C@H](C(=O)NCc1ccc(Cl)c(Cl)c1)N1CCC(CCc2ccc(Cl)cc2)N2C[C@H](N)C[C@H]2C1=O` (stereo not given in full), the IC50 is less than 1 µM in experiment [1] and “in the range around 1 µM” in experiment [2].
In the case of `CC(C)C[C@H](C(=O)NCc1cncs1)N1CCC(CCc2ccccc2)N2C[C@H](N)C[C@H]2C1=O` (stereo not given in full), the IC50 entry is “in the range around 1 µM” in experiment [1] and “in the range around 10 µM” in experiment [2].
As for `CC(C)C[C@H](C(=O)NCc1ccc(C#N)cc1)N1CCC(CCc2ccccc2)N2C[C@H](N)C[C@H]2C1=O` (stereo not given in full), the IC50 entry in experiment [1] was “in the range around 1 µM”; in experiment [2] it was “in the range around 10 µM”.
Take `N[C@@H]1C[C@H]2C(=O)N([C@H](CCC(=O)O)C(=O)NCc3ccc(Cl)c(Cl)c3)CCC(COc3ccccc3)N2C1` (stereo not given in full): the IC50 in experiment [1] and in experiment [2] was less than 1 µM in each case.
Take `CC(C)C[C@H](C(=O)N[C@@H](C)c1ccccc1)N1CCC(CCc2ccccc2)N2C[C@H](N)C[C@H]2C1=O` (stereo not given in full): the concentration for half-maximal inhibition (IC50) entry in experiment [1] and in experiment [2] was “in the range around 10 µM” in each case.
`CC(C)C[C@H](C(=O)N(C)Cc1ccc(C(F)(F)F)cc1)N1CCC(CCc2ccccc2)N2C[C@H](N)C[C@H]2C1=O` (stereo not given in full): the IC50 entry in experiment [1] and in experiment [2] was “in the range around 1 µM” throughout.
For `NC(=O)CC[C@H](C(=O)NCc1ccc(Cl)c(Cl)c1)N1CCC(CCc2ccccc2)N2C[C@H](N)C[C@H]2C1=O` (stereo not given in full), the 50% inhibitory concentration (IC50) in experiment [1] and in experiment [2] was less than 1 µM each time.
Turning to `Cc1ccc(CNC(=O)[C@@H](CC(C)C)N2CCC(CCc3ccccc3)N3C[C@H](N)C[C@H]3C2=O)cc1` (stereo not given in full), the half-maximal inhibitory concentration (IC50) result in experiment [1] and in experiment [2] was “in the range around 1 µM” each time.
Consider `CC(C)C[C@H](C(=O)NCc1ccc(Cl)cc1)N1CCC(CS(=O)(=O)c2ccccc2)N2C[C@H](N)C[C@H]2C1=O` (stereo not given in full), for which the values for the IC50 result in experiment [1] and in experiment [2] were “in the range around 1 µM” and “in the range around 10 µM”, respectively.
For the compound `Cc1nnc(CC[C@H](C(=O)NCc2ccc(Cl)c(Cl)c2)N2CCC(CCc3ccccc3)N3C[C@H](N)C[C@H]3C2=O)[nH]1` (stereo not given in full), the IC50 in experiment [1] and in experiment [2] was less than 1 µM each time.
For `CC(C)C[C@H](C(=O)NCc1ccc(Cl)cc1)N1CCC(C[S@+]([O-])c2ccccc2)N2C[C@H](N)C[C@H]2C1=O` (stereo not given in full), the IC50 in experiment [1] was less than 1 µM; in experiment [2], “in the range around 1 µM”.
